One assay relates to HDAC6. The conditions noted are these: ref Fournel et al, 2008; Gloghini et al, 2009; cited from earlier work.
A further assay deals with KM-H2 cells. In words: Apoptosis by annexin-V/propidium iodide FACS, KM-H2. The class given is cell-based, human. The following applies: 1 μmol/l, 48 h.
The target in the next assay is T1, human HDAC8 (Homo sapiens, UniProt Q9BY41).
T1 sequence (Q9BY41 1-377): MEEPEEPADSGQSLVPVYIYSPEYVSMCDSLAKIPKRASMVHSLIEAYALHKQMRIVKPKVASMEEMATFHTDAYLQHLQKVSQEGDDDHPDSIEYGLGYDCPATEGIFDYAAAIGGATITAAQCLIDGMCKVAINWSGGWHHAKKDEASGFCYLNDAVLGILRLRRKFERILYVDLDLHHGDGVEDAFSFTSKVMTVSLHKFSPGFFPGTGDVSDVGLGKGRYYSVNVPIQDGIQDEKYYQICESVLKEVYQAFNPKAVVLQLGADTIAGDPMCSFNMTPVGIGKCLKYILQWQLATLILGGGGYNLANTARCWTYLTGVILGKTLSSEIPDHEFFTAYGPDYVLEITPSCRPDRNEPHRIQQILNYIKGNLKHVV
In words: HDAC enzyme assay in vitro, HDAC8. The following applies: cell-free, purified enzyme.

A further assay deals with T2, human HDAC6 (Homo sapiens, UniProt Q9UBN7).
T2 sequence (Q9UBN7 1-1215): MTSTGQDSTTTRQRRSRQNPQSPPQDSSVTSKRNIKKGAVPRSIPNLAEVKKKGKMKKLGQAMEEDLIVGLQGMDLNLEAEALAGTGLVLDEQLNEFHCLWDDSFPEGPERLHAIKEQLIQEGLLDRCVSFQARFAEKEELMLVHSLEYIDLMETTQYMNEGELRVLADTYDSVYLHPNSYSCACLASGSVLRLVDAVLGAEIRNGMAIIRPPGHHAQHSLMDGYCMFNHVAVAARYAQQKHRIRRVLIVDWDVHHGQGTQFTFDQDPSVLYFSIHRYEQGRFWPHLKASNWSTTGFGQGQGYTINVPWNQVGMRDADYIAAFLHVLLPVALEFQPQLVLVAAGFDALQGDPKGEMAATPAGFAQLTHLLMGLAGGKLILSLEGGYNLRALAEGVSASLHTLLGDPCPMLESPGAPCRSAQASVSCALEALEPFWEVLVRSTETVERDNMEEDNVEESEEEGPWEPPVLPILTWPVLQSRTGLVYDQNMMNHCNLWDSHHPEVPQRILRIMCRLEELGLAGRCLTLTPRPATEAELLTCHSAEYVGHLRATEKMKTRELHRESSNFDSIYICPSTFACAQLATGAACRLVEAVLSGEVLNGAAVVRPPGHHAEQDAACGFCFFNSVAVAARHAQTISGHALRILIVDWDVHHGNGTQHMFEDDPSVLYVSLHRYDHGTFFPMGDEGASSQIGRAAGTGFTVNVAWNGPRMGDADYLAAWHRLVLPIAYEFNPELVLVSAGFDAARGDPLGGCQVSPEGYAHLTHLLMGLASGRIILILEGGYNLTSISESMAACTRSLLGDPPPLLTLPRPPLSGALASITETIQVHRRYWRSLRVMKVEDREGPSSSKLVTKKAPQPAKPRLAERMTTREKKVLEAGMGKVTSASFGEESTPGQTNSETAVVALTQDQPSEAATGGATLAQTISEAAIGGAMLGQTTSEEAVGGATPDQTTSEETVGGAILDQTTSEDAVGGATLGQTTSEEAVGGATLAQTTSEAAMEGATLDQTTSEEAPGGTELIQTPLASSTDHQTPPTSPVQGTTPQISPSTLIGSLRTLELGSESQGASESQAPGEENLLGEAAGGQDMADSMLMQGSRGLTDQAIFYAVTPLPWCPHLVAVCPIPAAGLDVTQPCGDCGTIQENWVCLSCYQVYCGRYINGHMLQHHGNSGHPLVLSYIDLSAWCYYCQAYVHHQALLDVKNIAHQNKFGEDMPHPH
In words: HDAC enzyme assay in vitro, HDAC6. Type of assay: biochemical. The conditions noted are these: cell-free, purified enzyme; Fig S1.

The subject of the next assay is L428 cells. In words: Apoptosis by annexin-V/propidium iodide FACS, L428. The class given is cell-based, human. The conditions noted are these: 1 μmol/l, 48 h.
Another assay concerns TNF-α. In words: TNF-α secretion in HL cell supernatants by ELISA. Type of assay: cell-based, human. The conditions noted are these: within 24 h of incubation. On the technique in general: An ELISA detects its analyte on a solid surface through an enzyme-linked reagent.
The subject of the next assay is HD-LM2 cells. In words: Apoptosis by annexin-V/propidium iodide FACS, HD-LM2. The following applies: 1 μmol/l, 48 h. Type of assay: cell-based, human.
The test system of a further assay is HDACs 1-10. In words: HDAC enzyme assay in vitro, purified HDAC 1-10 isoforms. The following applies: positive control.
In another assay the test system is HL cell lines. In words: Combination of MGCD0103 with proteasome inhibitors in HL cell lines. The class given is cell-based, human. The conditions noted are these: 48 h, combination index <1 indicates synergy.
Another assay deals with NF-kB. In words: p65 NF-kB nuclear translocation by Western blot. Type of assay: cell-based, human. The following applies: bortezomib 20 nmol/l with MGCD0103 1 μmol/l, 24 h. A general note: In western blotting, separated proteins are transferred to a membrane and probed.
Assay [1] has as its target human HDAC3 with human NcoR2 (Homo sapiens, UniProt O15379). In words: HDAC enzyme assay in vitro, HDAC3. The following applies: cell-free, purified enzyme.

These results are taken from paper PMC3189488 (British journal of haematology, 2010).

Sequence of human HDAC3 with human NcoR2 (O15379 whole entry): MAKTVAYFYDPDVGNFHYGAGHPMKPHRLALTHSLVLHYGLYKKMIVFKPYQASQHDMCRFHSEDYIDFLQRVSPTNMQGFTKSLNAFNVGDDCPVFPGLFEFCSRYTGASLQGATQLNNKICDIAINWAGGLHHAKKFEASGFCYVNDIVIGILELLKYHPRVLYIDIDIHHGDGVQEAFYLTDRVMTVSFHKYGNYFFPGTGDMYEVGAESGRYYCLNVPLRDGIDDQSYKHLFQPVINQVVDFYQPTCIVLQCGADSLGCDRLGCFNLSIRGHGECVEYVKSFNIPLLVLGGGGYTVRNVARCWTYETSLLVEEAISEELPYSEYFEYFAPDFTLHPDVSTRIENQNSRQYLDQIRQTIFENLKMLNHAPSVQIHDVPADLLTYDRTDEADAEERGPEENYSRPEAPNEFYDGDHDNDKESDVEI
Sequence of human HDAC3 with human NcoR2 (Q9Y618 395-489 partner limits assumed): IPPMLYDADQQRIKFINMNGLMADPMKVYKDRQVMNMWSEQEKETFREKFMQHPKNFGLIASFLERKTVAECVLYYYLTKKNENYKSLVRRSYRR

Regarding `Nc1ccccc1NC(=O)c1ccc(CNc2nccc(-c3cccnc3)n2)cc1` [MGCD0103], the “effect on HDAC6” value in the assay with HDAC6 is on record as “no effect”. Further, the “percentage of apoptotic cells” value in the assay with KM-H2 cells is 69%; in the assay with L428 cells, 72%; with HD-LM2 cells, 59%. In addition, the “inhibition of HDAC8 activity” value at human HDAC8 is “also inhibited the activity”. Also, the “effect on HDAC6 activity” value at human HDAC6 was “no effect”. The “TNF-α levels in supernatants” value with TNF-α is on record as “profoundly increased”.

For Trichostatin A [Trichostatin-A], the “potency against HDACs 1-10 compared with MGCD0103 and vorinostat” value with HDACs 1-10 was “higher potency”.

As to `C[C@@]12OC(=O)[C@]1([C@@H](O)[C@@H]1C=CCCC1)NC(=O)[C@@H]2CCCl` [NPI0052], the “combination effect with MGCD0103” value with HL cell lines is “synergistic activity”.

For `CC(C)C[C@H](NC(=O)[C@H](Cc1ccccc1)NC(=O)c1cnccn1)B(O)O` [bortezomib], the “combination effect with MGCD0103” value in the assay on HL cell lines is given as “synergistic antiproliferative effect”. Besides, the “effect on MGCD0103-induced NF-kB activation” value in the assay on NF-kB is listed as “inhibited MGCD0103-induced NF-kB activation”.

Turning to `O=C(CCCCCCC(=O)Nc1ccccc1)NO` [vorinostat, suberoylanilide hydroxamic], the results for the “percentage of apoptotic cells” value in the assay on KM-H2 cells, in the assay with L428 cells and with HD-LM2 cells were 13.8%, 15% and 21%, respectively. Besides, the “inhibition of HDAC8 activity” value at human HDAC8 is recorded as “had activity”. Further, the “inhibition of HDAC3 activity” value in assay [1] is given as “had activity”.
